# Reference: ChEMBL document CHEMBL1136001, “Azapeptides structurally based upon inhibitory sites of cystatins as potent and selective inhibitors of cysteine proteases” (J Med Chem, 2002)
# Calls of active or inactive are those of the source. The rule behind the calls is not given here. Non-standard residues stand in square brackets, D forms with d. Residues, ends and D or L forms follow the SMILES beside them. *: point of attachment. 1Nal = N[C@@H](Cc1cccc2ccccc12)C(=O)O; Cbz = O=C(OCc1ccccc1)*; NHBn = c1ccc(CN*)cc1; OBn = c1ccc(CO*)cc1; azaGly = NNC(=O)O
# Tests used:
# Papain = biological target: T1, Papain (Carica papaya, UniProt P00784); assay: In vitro inhibition of papain.
# T1 sequence (P00784 whole entry): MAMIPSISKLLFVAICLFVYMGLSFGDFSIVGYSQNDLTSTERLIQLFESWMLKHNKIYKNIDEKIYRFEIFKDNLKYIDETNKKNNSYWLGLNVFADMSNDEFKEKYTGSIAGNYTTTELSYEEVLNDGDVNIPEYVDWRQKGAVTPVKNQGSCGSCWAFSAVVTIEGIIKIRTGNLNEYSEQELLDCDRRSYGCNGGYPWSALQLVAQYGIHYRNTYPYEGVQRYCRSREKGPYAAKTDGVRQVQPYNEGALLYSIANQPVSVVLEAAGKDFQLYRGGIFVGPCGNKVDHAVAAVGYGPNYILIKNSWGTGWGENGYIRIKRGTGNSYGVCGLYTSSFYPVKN
# Cathepsin K = biological target: T2, Cathepsin K (Homo sapiens, UniProt P43235); assay: Inhibition of Human Cathepsin K
# T2 sequence (P43235 whole entry): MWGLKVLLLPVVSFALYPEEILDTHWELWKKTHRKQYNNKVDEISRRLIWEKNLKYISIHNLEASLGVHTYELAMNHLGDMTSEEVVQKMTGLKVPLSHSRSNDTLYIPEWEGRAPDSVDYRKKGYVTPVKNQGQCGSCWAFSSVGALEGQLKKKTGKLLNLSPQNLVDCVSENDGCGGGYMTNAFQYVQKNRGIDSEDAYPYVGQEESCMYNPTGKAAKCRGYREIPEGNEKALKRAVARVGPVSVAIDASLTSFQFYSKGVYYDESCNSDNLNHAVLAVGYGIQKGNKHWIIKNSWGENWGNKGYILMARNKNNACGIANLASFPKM
# Papain (Carica papaya) = biological target: T3, Papain (Carica papaya) (UniProt P00784); assay: Evaluated for inhibitory activity against papain; No inhibition
# T3 sequence (whole entry): T1 sequence (P00784 whole entry)
# Cathepsin B = Cathepsin B (Homo sapiens, UniProt P07858); assay: Inhibition of Human Cathepsin B
Ki (Papain) [nM],Ki (Cathepsin K) [nM],NA (Papain (Carica papaya)),NI (Papain (Carica papaya)),Ki (Cathepsin B) [nM],SMILES
61,,,,,COC(=O)[C@@H](NC(=O)NNC(=O)[C@H](Cc1ccccc1)NC(C)=O)C(C)C
59,,,,,CCCCOC(=O)[C@@H](NC(=O)NNC(=O)[C@H](Cc1ccccc1)NC(C)=O)C(C)C
30,,,,,CC(=O)N[C@@H](Cc1ccccc1)C(=O)NNC(=O)N[C@H](C(=O)NCc1ccccc1)C(C)C
28,,,,,CCCCNC(=O)[C@@H](NC(=O)NNC(=O)[C@H](Cc1ccccc1)NC(C)=O)C(C)C
21,,,,,CC(=O)N[C@@H](Cc1ccccc1)C(=O)NNC(=O)N[C@H](C(=O)OCc1ccccc1)C(C)C
20,,,,,CCOC(=O)[C@@H](NC(=O)NNC(=O)[C@H](Cc1ccccc1)NC(C)=O)C(C)C
32,,,,,CNC(=O)[C@@H](NC(=O)NNC(=O)[C@H](Cc1ccccc1)NC(C)=O)C(C)C
24,61,,,,CCOC(=O)NNC(=O)[C@@H](NC(=O)[C@H](CC(C)C)NC(=O)OC(C)(C)C)C(C)C
,,inactive,,,CC(=O)N[C@@H](Cc1ccccc1)C(=O)NNC(=O)N[C@H](C(=O)O)C(C)C
,,,inactive,,CC(C)C(NC(=O)NNC(=O)OC(C)(C)C)C(=O)OCc1ccccc1 (stereo not given)
0.12,0.18,,,0.13,CC[C@H](C)[C@H](NC(=O)NNC(=O)[C@H](Cc1ccccc1)NC(=O)[C@H](CC(C)C)NC(=O)[C@H](C)NC(=O)OCc1ccccc1)C(=O)N[C@H](C(=O)OC)C(C)C (Cbz-ALF[azaGly]IV-OMe)
0.58,0.86,,,0.03,CC[C@H](C)[C@H](NC(=O)NNC(=O)[C@H](Cc1cnc[nH]1)NC(=O)[C@H](CC(C)C)NC(=O)[C@H](C)NC(=O)OCc1ccccc1)C(=O)N[C@H](C(=O)OC)C(C)C (Cbz-ALH[azaGly]IV-OMe)
1.35,2.45,,,0.25,CC[C@H](C)[C@H](NC(=O)NNC(=O)[C@@H](NC(=O)[C@H](CC(C)C)NC(=O)[C@H](C)NC(=O)OCc1ccccc1)[C@@H](C)CC)C(=O)N[C@H](C(=O)NCc1ccccc1)C(C)C (Cbz-ALI[azaGly]IV-NHBn)
0.95,2.12,,,0.3,CC[C@H](C)[C@H](NC(=O)NNC(=O)[C@@H](NC(=O)[C@H](CC(C)C)NC(=O)[C@H](C)NC(=O)OCc1ccccc1)[C@@H](C)CC)C(=O)N[C@H](C(=O)OC)C(C)C (Cbz-ALI[azaGly]IV-OMe)
0.28,8.42,,,1.41,CC[C@H](C)[C@H](NC(=O)NNC(=O)[C@H](Cc1ccc(OC)cc1)NC(=O)[C@H](CC(C)C)NC(=O)[C@H](C)NC(=O)OCc1ccccc1)C(=O)N[C@H](C(=O)OC)C(C)C (Cbz-ALY(Me)[azaGly]IV-OMe)
0.1,5.75,,,1.58,CC[C@H](C)[C@H](NC(=O)NNC(=O)[C@H](Cc1cccc2ccccc12)NC(=O)[C@H](CC(C)C)NC(=O)[C@H](C)NC(=O)OCc1ccccc1)C(=O)N[C@H](C(=O)OC)C(C)C (Cbz-AL[1Nal][azaGly]IV-OMe)
,,,inactive,,CC(C)C[C@H](NC(=O)OCc1ccccc1)C(=O)N[C@@H](Cc1ccccc1)C(=O)NNC(=O)N[C@H](C(=O)OCc1ccccc1)C(C)C (Cbz-LF[azaGly]V-OBn)
6.7,34,,,40,CC(C)C[C@H](NC(=O)OCc1ccccc1)C(=O)N[C@H](C(=O)NNC(=O)N[C@H](C(=O)OCc1ccccc1)C(C)C)C(C)C (Cbz-LV[azaGly]V-OBn)
,,,inactive,,CC(C)C[C@H](NC(=O)[C@H](CCCN=C(N)N)NC(=O)OCc1ccccc1)C(=O)N[C@@H](Cc1ccccc1)C(=O)NNC(=O)N[C@H](C(=O)OCc1ccccc1)C(C)C (Cbz-RLF[azaGly]V-OBn)
0.77,21,,,0.088,CC[C@H](C)[C@H](NC(=O)NNC(=O)[C@@H](NC(=O)[C@H](CC(C)C)NC(=O)[C@H](CCCN=C(N)N)NC(=O)OCc1ccccc1)C(C)C)C(=O)N[C@H](C(=O)OC)C(C)C (Cbz-RLV[azaGly]IV-OMe)
0.78,6.76,,,7.29,CC(C)C[C@H](NC(=O)[C@H](CCCNC(=N)N)NC(=O)OCc1ccccc1)C(=O)N[C@H](C(=O)NNC(=O)N[C@@H](C)C(=O)NCC(N)=O)C(C)C (HELM PEPTIDE1{[O=C(OCc1ccccc1)[*:2]].R.L.V.[O=C(NN[*:1])[*:2]].A.G.[am]}$$$$V2.0)
17,72,,,13,CC[C@H](C)[C@H](NC(=O)NNC(=O)[C@@H](NC(=O)[C@H](CC(C)C)NC(=O)[C@H](CCCN=C(N)N)NC(=O)OCc1ccccc1)C(C)C)C(=O)N[C@H](C(=O)N[C@@H](Cc1c[nH]c2ccccc12)C(N)=O)C(C)C (HELM PEPTIDE1{[O=C(OCc1ccccc1)[*:2]].R.L.V.[O=C(NN[*:1])[*:2]].I.V.W.[am]}$$$$V2.0)
0.56,2.13,,,0.12,CC(C)C[C@H](NC(=O)[C@H](CCCNC(=N)N)NC(=O)OCc1ccccc1)C(=O)N[C@H](C(=O)NNC(=O)N[C@H](C(=O)N[C@@H](C)C(N)=O)C(C)C)C(C)C (HELM PEPTIDE1{[O=C(OCc1ccccc1)[*:2]].R.L.V.[O=C(NN[*:1])[*:2]].V.A.[am]}$$$$V2.0)
100,100,,,43,CC(C)C[C@H](NC(=O)[C@H](CCCNC(=N)N)NC(=O)OCc1ccccc1)C(=O)N[C@H](C(=O)NNC(=O)N[C@@H](Cc1c[nH]c2ccccc12)C(=O)N[C@H](C(=O)N[C@@H](C)C(N)=O)C(C)C)C(C)C (HELM PEPTIDE1{[O=C(OCc1ccccc1)[*:2]].R.L.V.[O=C(NN[*:1])[*:2]].W.V.A.[am]}$$$$V2.0)

SMILES,Ki (Papain) [nM],Ki (Cathepsin K) [nM],NA (Papain (Carica papaya)),NI (Papain (Carica papaya)),Ki (Cathepsin B) [nM]
CC(C)C[C@H](N)C(=O)N[C@H](C(=O)NNC(=O)N[C@H](C(=O)OCc1ccccc1)C(C)C)C(C)C (HELM PEPTIDE1{L.V.[O=C(NN[*:1])[*:2]].V.[c1ccc(CO[*:1])cc1]}$$$$V2.0),,,,inactive,
